Experimental data as given in patent US7189760B2, “Physiological cooling compositions containing highly purified ethyl ester of N-[[5-methyl-2-(1-methylethyl) cyclohexyl] carbonyl]glycine” (Millennium Specialty Chemicals, priority 2004, dated 2007).
One block for each molecule: values may come before it.

Experiments:
[1] = lower threshold = stronger coolant; data of U.S. Pat. Nos. 4,060,091 etc.; cited from earlier work
[2] = cited from earlier work; for sensitivity threshold (corrected data): J. Soc. Cosmet. Chem., 1978, vol. 29, pp. 185–200
[3] = visual and organoleptic test of aqueous solution of the product; assay type: in vivo; settings: 25 ppm aqueous solution
From the text: (§1) Further, the aqueous solutions of products for organoleptic tests were obtained by dissolving appropriate amounts of the products in dipropylene glycol DPG and adding the solution in DPG to an appropriate amount of water.

[4] = comparison of cooling strength to WS-3 in oral application; assay type: in vivo; settings: for cooling strength relative to WS-3 (times stronger): aqueous solutions, vs 10 ppm WS-3
Protocol: as §1
A comparison basis aqueous solution of WS-3 (compound 5) was prepared containing 10 ppm concentration of WS-3.
Aqueous solutions were prepared containing various concentrations of the purified compound 10: 2 ppm, 3 ppm, 4 ppm, 5 ppm, and higher. These solutions were tested in oral application in comparison to the basis solution of 10 ppm of WS-3.
Aqueous solutions were prepared containing various concentrations of the purified compound 10: 2 ppm, 3 ppm, 3.5 ppm, 4 ppm, 5 ppm, and higher. These solutions were tested in oral application in comparison to the basis solution of 10 ppm of WS-3.

volatility = assay type: physicochemical; settings: compared with menthol
[5] = sensitivity threshold (cooling strength) of N-monosubstituted p-menthane-3-carboxamides, prior-art patents; assay type: in vivo; settings: from patent thresholds 0.2 vs 0.3 μg
From the text: With specific reference to structure 6, substituent “X” is commonly selected from the lower linear or branched alkyl substituents, functionally substituted alkyl substituents, or aryl substituents. To that end, U.S. Pat. Nos. 4,060,091; 4,136,163; 4,150,052; 4,178,459; 4,193,936; and 4,226,988, the entire disclosures of which are hereby incorporated by reference for all purposes, give a comparison of cooling strengths of certain N-monosubstituted p-menthane-3-carboxamides numerically expressed as sensitivity thresholds in μg, wherein a lower threshold value correlates to a stronger coolant effect. Of the compared compounds, the only commercially used N-monosubstituted p-menthane-3-carboxamide compound is the WS-3 coolant, having a sensitivity threshold of 0.3 μg.

SMILES: CCNC(=O)C1C[C@H](C)CCC1C(C)C (stereo in doubt) [WS-3, N-ethyl-p-menthane-3-carboxamide, reference compound]
sensitivity threshold [1]: 0.3 µg
sensitivity threshold (corrected data) [2]: 0.2 µg

SMILES: CCOC(=O)CNC(=O)C1CC(C)CCC1C(C)C (stereo not drawn) [Comparative Synthetic and Organoleptic Example 1] [ethyl ester of N-[[5-methyl-2-(1-methylethyl)cyclohexyl]carbonyl]glycine, reference compound]
tingling/cooling sensation [3]: noticeable tingling/cooling sensation

SMILES: CCOC(=O)CNC(=O)C1CC(C)CCC1C(C)C (stereo not drawn) [Comparative Synthetic and Organoleptic Example 2 after the a] [ethyl ester of N-[[5-methyl-2-(1-methylethyl)cyclohexyl]carbonyl]glycine, reference compound]
tingling/cooling sensation [3]: strong tingling/cooling sensation

SMILES: CCOC(=O)CNC(=O)C1CC(C)CCC1C(C)C (stereo not drawn) [Comparative Synthetic and Organoleptic Example 2] [ethyl ester of N-[[5-methyl-2-(1-methylethyl)cyclohexyl]carbonyl]glycine, reference compound]
tingling/cooling sensation [3]: strong tingling/cooling sensation

SMILES: CCOC(=O)CNC(=O)C1CC(C)CCC1C(C)C (stereo not drawn) [Inventive Example 1, ethyl ester of N-[[5-methyl-2-(1-methylethyl)cyclohexyl]carbonyl]glycine]
tingling/cooling sensation [3]: very strong tingling/cooling sensation
cooling effect compared to basis solution of 10 ppm WS-3 ([4]; 4 ppm aqueous solution): approximately equal cooling effect
cooling effect compared to basis solution of 10 ppm WS-3 ([4]; 5 ppm aqueous solution): stronger and longer lasting cooling effect
cooling strength relative to WS-3 (times stronger) [4]: approximately 2.5 times

SMILES: CCOC(=O)CNC(=O)C1CC(C)CCC1C(C)C (stereo not drawn) [Inventive Example 2, ethyl ester of N-[[5-methyl-2-(1-methylethyl)cyclohexyl]carbonyl]glycine]
tingling/cooling sensation [3]: very strong tingling/cooling sensation

SMILES: CCOC(=O)CNC(=O)C1CC(C)CCC1C(C)C (stereo not drawn) [Inventive Example 3 (A), ethyl ester of N-[[5-methyl-2-(1-methylethyl)cyclohexyl]carbonyl]glycine]
tingling/cooling sensation [3]: very strong tingling/cooling sensation

SMILES: CCOC(=O)CNC(=O)C1CC(C)CCC1C(C)C (stereo not drawn) [Inventive Example 3, ethyl ester of N-[[5-methyl-2-(1-methylethyl)cyclohexyl]carbonyl]glycine]
tingling/cooling sensation ([3]; listed as Inventive Example 3 (B)): extremely strong and pleasant tingling/cooling sensation
cooling effect compared to basis solution of 10 ppm WS-3 ([4]; 3.5 ppm aqueous solution): approximately equal cooling effect
cooling effect compared to basis solution of 10 ppm WS-3 ([4]; 4 ppm aqueous solution): stronger and longer lasting cooling effect
cooling strength relative to WS-3 (times stronger) [4]: approximately 3 times

SMILES: CCOC(=O)CNC(=O)C1CC(C)CCC1C(C)C (stereo not drawn) [Inventive Example 4, ethyl ester of N-[[5-methyl-2-(1-methylethyl)cyclohexyl]carbonyl]glycine]
tingling/cooling sensation [3]: very strong tingling/cooling sensation

SMILES: CCOC(=O)CNC(=O)C1CC(C)CCC1C(C)C (stereo not drawn) [Inventive Example 5, ethyl ester of N-[[5-methyl-2-(1-methylethyl)cyclohexyl]carbonyl]glycine]
tingling/cooling sensation [3]: very strong tingling/cooling sensation

SMILES: Cc1ccc(NC(=O)C2CC(C)CCC2C(C)C)cc1C (stereo not drawn) [compound 7]
sensitivity threshold [1]: 0.1 µg

SMILES: Cc1ccc(NC(=O)C2CC(C)CCC2C(C)C)cc1O (stereo not drawn) [compound 8]
sensitivity threshold [1]: 0.1 µg

volatility (volatility): much lower volatility than menthol
SMILES: CCOC(=O)CNC(=O)C1CC(C)CCC1C(C)C (stereo not drawn) [compound 10, ethyl ester of N-[[5-methyl-2-(1-methylethyl)cyclohexyl]carbonyl]glycine]
sensitivity threshold [1]: 0.2 µg
sensitivity threshold (corrected data) [2]: 0.13 µg
cooling strength relative to compound 5 (times stronger) ([2]; from corrected thresholds 0.13 vs 0.2 μg): approximately 1.5 times
cooling strength relative to WS-3 (times stronger) [5]: 1.5 times
